Read-outs that look alike come from different tables or passages of the source.
Experiments:
Assay type in all cases: in vivo
[1] = tested on: Abutilon theophrasti; assay: Greenhouse pre-emergence (PRE) herbicidal test on ABUTH; details: Abutilon theophrasti, pre-emergence
Outline: (§1)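 Scoring ran from 0 (normal growth) to 100 (no emergence or above-ground parts fully destroyed) and was done 20 DAT. Application was pre-emergent in pots of loamy sand (~3.0% humus) sown per species. Plants grew at 10-25° C or 20-35° C by species.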

[2] = tested on: Amaranthus retroflexus; assay: Greenhouse pre-emergence (PRE) herbicidal test on AMARE; details: Amaranthus retroflexus, pre-emergence
Procedure: The culture containers used were plastic pots containing loamy sand with approximately 3.0% of humus as substrate. The seeds of the test plants were sown separately for each species.
The containers were irrigated gently to promote germination and growth and subsequently covered with transparent plastic hoods until the plants had rooted.
Depending on the species, the plants were kept at 10-25° C. and 20-35° C., respectively.
The test period extended over 2 to 4 weeks. During this time, the plants were tended and their response to the individual treatments was evaluated.
Evaluation was carried out using a scale from 0 to 100. 100 means no emergence of the plants, or complete destruction of at least the above-ground parts, and 0 means no damage or normal course of growth. A good herbicidal activity is given at values of at least 70, and very good herbicidal activity is given at values of at least 85.
As indicated application was either post emergent (POST) at the respective growth stage (GS) of the weed (BBCH code), or pre-emergent (PRE). […]

[3] = tested on: Echinochloa crus-galli; assay: Greenhouse post-emergence (POST) herbicidal test on ECHCG; details: Echinochloa crus-galli, post-emergence
Outline: (§2)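 For this test, compounds formulated as a 5% by weight emulsion concentrate were diluted into spray liquor and applied post-emergence. Species were kept at 10-25° C or 20-35° C and injury was scored at 20 DAT on a 0–100 scale.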

[4] = tested on: Lolium multiflorum; assay: Greenhouse pre-emergence (PRE) herbicidal test on LOLMU; details: Lolium multiflorum, pre-emergence
Outline: as §1

[5] = tested on: Euphorbia heterophylla; assay: Greenhouse pre-emergence (PRE) herbicidal test on EPHHL; details: Euphorbia heterophylla, pre-emergence
Outline: as §1

[6] = tested on: Setaria viridis; assay: Greenhouse pre-emergence (PRE) herbicidal test on SETVI; details: Setaria viridis, pre-emergence, 480 h, PRE, 20 DAT
Outline: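 Visual rating on a 0 (normal growth) to 100 (no emergence or above-ground kill) scale at 20 DAT. Treatment was pre-emergence spray of aqueous suspension/emulsion right after sowing into loamy sand with ~3.0% humus; covered until rooted, grown at 10-25° C or 20-35° C depending on species.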

[7] = tested on: Geranium pusillum; assay: Greenhouse post-emergence (POST) herbicidal test on GERPU; details: Geranium pusillum, post-emergence
Outline: as §2

[8] = tested on: Digitaria sanguinalis; assay: Greenhouse post-emergence (POST) herbicidal test on DIGSA; details: Digitaria sanguinalis, post-emergence
Outline: as §2

[9] = tested on: Commelina benghalensis; assay: Greenhouse pre-emergence (PRE) herbicidal test on COMBE; details: Commelina benghalensis, pre-emergence
Outline: as §1

[10] = tested on: Euphorbia heterophylla; assay: Greenhouse post-emergence (POST) herbicidal test on EPHHL; details: Euphorbia heterophylla, post-emergence
Outline: as §2

[11] = tested on: Ambrosia artemisiifolia; assay: Greenhouse pre-emergence (PRE) herbicidal test on AMBEL; details: Ambrosia artemisiifolia, pre-emergence
[12] = tested on: Amaranthus retroflexus; assay: Greenhouse post-emergence (POST) herbicidal test on AMARE; details: Amaranthus retroflexus, post-emergence
Outline: as §2

[13] = tested on: Alopecurus myosuroides; assay: Greenhouse pre-emergence (PRE) herbicidal test on ALOMY; details: Alopecurus myosuroides, pre-emergence
Outline: as §1

[14] = tested on: Echinochloa crus-galli; assay: Greenhouse pre-emergence (PRE) herbicidal test on ECHCG; details: Echinochloa crus-galli, pre-emergence
[15] = tested on: Abutilon theophrasti; assay: Greenhouse post-emergence (POST) herbicidal test on ABUTH; details: Abutilon theophrasti, post-emergence
Outline: as §2

[16] = 480 h, PRE, 0.25 gai/ha, 20 DAT
[17] = 480 h, POST, 0.25 gai/ha, 20 DAT

CCOC(=O)COc1ccccc1Oc1nc(-n2c(=O)cc(C(F)(F)F)n(C)c2=O)c(F)cc1Cl [2-[2-[[3-chloro-6-[3,6-dihydro-3-methyl-2,6-dioxo-4-(trifluoromethyl)-1(2H)-pyrimidinyl]-5-fluoro-2-pyridinyl]oxy]phenoxy]acetic acid ethyl ester]
85%: inhibition at 0.5 g/ha ([7]; 480 h, GERPU POST, 20 DAT, use rate 0.5 gai/ha) | pest or weed control at 0.5 g/ha ([7]; 480 h, POST, 0.5 gai/ha, 20 DAT)
10%: pest or weed control at 0.5 g/ha ([1]; 480 h, PRE, 0.5 gai/ha, 20 DAT)
15%: inhibition at […] ([3]; 480 h, ECHCG POST, 20 DAT, use rate 0.25 gai/ha) | pest or weed control at […] [8, 17]
5%: inhibition at […] ([5]; 480 h, EPHHL PRE, 20 DAT, use rate 0.25 gai/ha, read-out: % activity) | pest or weed control at […] [5, 16]
80%: inhibition at 0.5 g/ha ([3]; 480 h, ECHCG POST, 20 DAT, use rate 0.5 gai/ha, read-out: % activity) | inhibition at 0.5 g/ha ([8]; 480 h, DIGSA POST, 20 DAT, use rate 0.5 gai/ha)
50%: inhibition at […] ([10]; 480 h, EPHHL POST, 20 DAT, use rate 0.25 gai/ha) | pest or weed control at […] [10, 17]
0%: pest or weed control at […] [1, 16] | pest or weed control at 0.5 g/ha ([2]; 480 h, PRE, 0.5 gai/ha, 20 DAT) | inhibition at […] ([4]; 480 h, LOLMU PRE, 20 DAT, use rate 0.25 gai/ha, read-out: % activity) | pest or weed control at […] [4, 16] | pest or weed control at 0.5 g/ha ([4]; 480 h, PRE, 0.5 gai/ha, 20 DAT) | inhibition at 0.5 g/ha ([5]; 480 h, EPHHL PRE, 20 DAT, use rate 0.5 gai/ha, read-out: % activity) | pest or weed control at 0.5 g/ha ([5]; 480 h, PRE, 0.5 gai/ha, 20 DAT) | pest or weed control at […] ([6]; 0.25 gai/ha) | pest or weed control at 0.5 g/ha ([6]; 0.5 gai/ha) | inhibition at […] ([9]; 480 h, COMBE PRE, 20 DAT, use rate 0.25 gai/ha, read-out: % activity) | inhibition at 0.5 g/ha ([9]; 480 h, COMBE PRE, 20 DAT, use rate 0.5 gai/ha) | pest or weed control at 0.5 g/ha ([9]; 480 h, PRE, 0.5 gai/ha, 20 DAT) | inhibition at […] ([11]; 480 h, AMBEL PRE, 20 DAT, use rate 0.25 gai/ha, read-out: % activity) | inhibition at 0.5 g/ha ([11]; 480 h, AMBEL PRE, 20 DAT, use rate 0.5 gai/ha, read-out: % activity) | pest or weed control at […] [11, 16]

CS(=O)(=O)NC(=O)c1cc(Oc2ccc(C(F)(F)F)cc2Cl)ccc1[N+](=O)[O-] [Fomesafen, fomesafen]
10%: inhibition at […] ([9]; 480 h, PRE, COMBE, use rate 2.5 gai/ha, 20 DAT, read-out: solo application % activity) | inhibition at 10 g/ha ([9]; 480 h, PRE, COMBE, use rate 10 gai/ha, 20 DAT, read-out: solo application % activity)
25%: inhibition at 10 g/ha ([2]; 480 h, PRE, AMARE, use rate 10 gai/ha, 20 DAT, read-out: solo application % activity) | inhibition at 10 g/ha ([12]; 480 h, POST, AMARE, use rate 10 gai/ha, 20 DAT, read-out: solo application % activity) | inhibition at 10 g/ha ([8]; 480 h, POST, DIGSA, use rate 10 gai/ha, 20 DAT, read-out: solo application % activity)
20%: inhibition at […] ([15]; 480 h, POST, ABUTH, use rate 2.5 gai/ha, 20 DAT, read-out: solo application % activity) | inhibition at 10 g/ha ([15]; 480 h, POST, ABUTH, use rate 10 gai/ha, 20 DAT, read-out: solo application % activity)
0%: inhibition at […] ([1]; 480 h, PRE, ABUTH, use rate 2.5 gai/ha, 20 DAT, read-out: solo application % activity) | inhibition at 10 g/ha ([1]; 480 h, PRE, ABUTH, use rate 10 gai/ha, 20 DAT, read-out: solo application % activity) | inhibition at […] ([2]; 480 h, PRE, AMARE, use rate 2.5 gai/ha, 20 DAT, read-out: solo application % activity) | inhibition at […] ([13]; 480 h, PRE, ALOMY, use rate 2.5 gai/ha, 20 DAT, read-out: solo application % activity) | inhibition at 10 g/ha ([13]; 480 h, PRE, ALOMY, use rate 10 gai/ha, 20 DAT, read-out: solo application % activity) | inhibition at […] ([14]; 480 h, PRE, ECHCG, use rate 2.5 gai/ha, 20 DAT, read-out: solo application % activity) | inhibition at 10 g/ha ([14]; 480 h, PRE, ECHCG, use rate 10 gai/ha, 20 DAT, read-out: solo application % activity) | inhibition at […] ([4]; 480 h, PRE, LOLMU, use rate 2.5 gai/ha, 20 DAT, read-out: solo application % activity) | inhibition at 10 g/ha ([4]; 480 h, PRE, LOLMU, use rate 10 gai/ha, 20 DAT, read-out: solo application % activity) | inhibition at […] ([5]; 480 h, PRE, EPHHL, use rate 2.5 gai/ha, 20 DAT, read-out: solo application % activity) | inhibition at 10 g/ha ([5]; 480 h, PRE, EPHHL, use rate 10 gai/ha, 20 DAT, read-out: solo application % activity) | inhibition at […] ([11]; 480 h, PRE, AMBEL, use rate 2.5 gai/ha, 20 DAT, read-out: solo application % activity) | inhibition at 10 g/ha ([11]; 480 h, PRE, AMBEL, use rate 10 gai/ha, 20 DAT, read-out: solo application % activity)

CCC(=O)Nc1ccc(Cl)c(Cl)c1 [Propanil, propanil]
0%: pest or weed control at 500 g/ha ([1]; 432 h, read-out: % activity) | pest or weed control at 500 g/ha ([2]; 432 h, read-out: % activity) | inhibition at 250 g/ha ([3]; 432 h, POST, ECHCG, 250 gai/ha, 18 DAT, read-out: % activity solo application) | inhibition at 500 g/ha ([3]; 432 h, POST, ECHCG, 500 gai/ha, 18 DAT, read-out: % activity solo application) | pest or weed control at 250 g/ha ([3]; 432 h, read-out: % activity) | pest or weed control at 500 g/ha ([3]; 432 h, read-out: % activity) | pest or weed control at 250 g/ha ([12]; 432 h, read-out: % activity) | pest or weed control at 500 g/ha ([12]; 432 h, read-out: % activity) | pest or weed control at 250 g/ha ([13]; 432 h, read-out: % activity) | pest or weed control at 500 g/ha ([13]; 432 h, read-out: % activity) | pest or weed control at 250 g/ha ([14]; 432 h, read-out: % activity) | pest or weed control at 500 g/ha ([14]; 432 h, read-out: % activity) | inhibition at 250 g/ha ([4]; 432 h, PRE, LOLMU, 250 gai/ha, 18 DAT, read-out: % activity solo application) | inhibition at 500 g/ha ([4]; 432 h, PRE, LOLMU, 500 gai/ha, 18 DAT, read-out: % activity solo application) | pest or weed control at 250 g/ha ([4]; 432 h, read-out: % activity) | pest or weed control at 500 g/ha ([4]; 432 h, read-out: % activity) | pest or weed control at 250 g/ha ([5]; 432 h, read-out: % activity) | pest or weed control at 250 g/ha ([15]; 432 h, read-out: % activity) | pest or weed control at 250 g/ha ([9]; 432 h, read-out: % activity) | pest or weed control at 250 g/ha ([10]; 432 h, read-out: % activity) | pest or weed control at 250 g/ha ([11]; 432 h, read-out: % activity) | pest or weed control at 500 g/ha ([11]; 432 h, read-out: % activity)
40%: pest or weed control at 500 g/ha ([7]; 432 h, read-out: % activity)
10%: inhibition at 250 g/ha ([8]; 432 h, POST, DIGSA, 250 gai/ha, 18 DAT, read-out: % activity solo application) | pest or weed control at 250 g/ha ([8]; 432 h, read-out: % activity) | pest or weed control at 500 g/ha ([8]; 432 h, read-out: % activity)
5%: pest or weed control at 500 g/ha ([15]; 432 h, read-out: % activity)
